Reference: US9662310B2, “Cyclopropanecarboxylic acid derivative” (DAIICHI SANKYO COMPANY, LIMITED, priority 2010, dated 2017)
Where two headings read alike, the source gives them in different places.

Key:
TAFIa = TAFIa (Homo sapiens (Human), UniProt Q96IY4); assay: Determination of TAFIa enzyme inhibitory activity (FAAK substrate degradation); format: biochemical; conditions: read-out: TAFIa IC50
Experimental: Determination of TAFIa Enzyme Inhibitory Activity
HEPES buffered saline (20 mM HEPES, 150 mM NaCl, pH 7.4; hereinafter, referred to as HBS) was used in the preparation of a reaction solution. To 12 μL of a 250 μg/mL TAFI solution, 30 μL of an HBS solution containing 4 U/mL human thrombin, 12 U/mL rabbit lung thrombomodulin, and 12 mM CaCl2 was added, and the mixture was gently stirred. Then, TAFI was activated at room temperature. Ten minutes later, thrombin was neutralized by the addition of 10 μL of 100 μM PPACK (thrombin inhibitor) to terminate the activation of TAFI. The formed TAFIa was stored in ice and diluted immediately before use in determination with 2050 μL of an HBS solution containing BSA (bovine serum albumin) adjusted to 0.1% in terms of the final concentration.
(2) Determination of TAFIa Inhibitory Activity
A test substance was dissolved in HBS to prepare a 10-fold dilution series of evaluation concentrations. 80 μL of the TAFIa solution and 10 μL of the test substance were added to each well of a 96-well plate and mixed by shaking for 10 minutes. 10 μL of furylacryloyl-alanyl-lysine (FAAK) adjusted to 5 mg/mL was added to each well, and the change in the absorbance of this mixed solution at 330 nm was read for 30 minutes to determine the degradation rate of the substrate.
(3) Calculation of Inhibitory Activity IC50
The degradation rate of the substrate in each well was applied to a standard curve prepared using the dilution series of the TAFIa solution to calculate TAFIa activity.

[1] = test system: iron chloride-induced thrombus models; conditions: mice, intravenous administration; cited from earlier work
[2] = TAFI activated with human thrombin / rabbit lung thrombomodulin, substrate FAAK, absorbance at 330 nm

TAFIa, sequence (Q96IY4 115-423): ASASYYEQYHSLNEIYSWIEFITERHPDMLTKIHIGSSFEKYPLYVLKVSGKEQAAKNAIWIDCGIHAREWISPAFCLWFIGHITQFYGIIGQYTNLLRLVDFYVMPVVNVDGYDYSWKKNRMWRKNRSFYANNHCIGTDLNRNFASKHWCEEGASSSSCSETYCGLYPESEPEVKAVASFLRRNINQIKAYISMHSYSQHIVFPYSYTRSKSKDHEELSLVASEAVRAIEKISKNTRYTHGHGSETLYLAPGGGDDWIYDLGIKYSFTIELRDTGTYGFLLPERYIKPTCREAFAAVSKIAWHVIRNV

Compound	IC50 (TAFIa; [2]) [nM]	IC50 (TAFIa) [nM]	further results
CC[C@@H](CN)C[C@H]1C[C@]1(C(=O)O)c1cn(-c2ccccc2)cn1 [Example 62, (1R,2S)-2-[(2R)-2-(Aminomethyl)butyl]-1-(1-phenyl-1H-imidazol-4-yl)cyclopropanecarboxylic acid]	7.9	–	–
CC[C@H](CN)C[C@H]1C[C@]1(C(=O)O)c1cn(-c2ccccc2)cn1 [Example 63, (1R,2S)-2-[(25)-2-(Aminomethyl)butyl]-1-(1-phenyl-1H-imidazol-4-yl)cyclopropanecarboxylic acid]	–	12	–
CCC[C@@H](CN)C[C@H]1C[C@]1(C(=O)O)c1cn(-c2ccccn2)cn1 [Example 66, (1R,2S)-2-[(2R)-2-(Aminomethyl)pentyl]-1-(1-pyridin-2-yl-1H-imidazol-4-yl)cyclopropanecarboxylic acid]	–	41	–
CCC[C@@H](CN)C[C@@H]1C[C@@]1(C(=O)O)c1cn(-c2ccccn2)cn1 [Example 67, (1S,2R)-2-[(2R)-2-(Aminomethyl)pentyl]-1-(1-pyridin-2-yl-1H-imidazol-4-yl)cyclopropanecarboxylic acid]	–	> 100	–
C[C@H](CCN)C1CC1(C(=O)O)c1cn(-c2ccccn2)cn1 (stereo partly drawn) [Example 68, 2-[(2R)-4-Aminobutane-2-yl]-1-[1-(pyridin-2-yl)-1H-imidazol-4-yl)cyclopropanecarboxylic acid]	12	–	–
potato carboxypeptidase inhibitor (PCI) (QQHADPICNKPCKTHDDCSGAWFCQACWNSARTCGPYVG; UniProt P01075 1-39, looked up)	–	–	antithrombotic effect [1]: antithrombotic effect
